Structures can show the parent of a compound that is named as a salt. Where two headings read alike, the source gives them in different places.
Legend:
[1] = target: T1, alpha2 receptor (guinea pig atrium) (Cavia porcellus, UniProt Q60474); assay: isolated, superfused guinea pig left atrium (prejunctional alpha2 agonism)
T1 construct: isolated, superfused guinea pig left atrium; from tissue; host or cells: guinea pig left atrium (sympathetic nerve endings)
T1 sequence (Q60474 1-464): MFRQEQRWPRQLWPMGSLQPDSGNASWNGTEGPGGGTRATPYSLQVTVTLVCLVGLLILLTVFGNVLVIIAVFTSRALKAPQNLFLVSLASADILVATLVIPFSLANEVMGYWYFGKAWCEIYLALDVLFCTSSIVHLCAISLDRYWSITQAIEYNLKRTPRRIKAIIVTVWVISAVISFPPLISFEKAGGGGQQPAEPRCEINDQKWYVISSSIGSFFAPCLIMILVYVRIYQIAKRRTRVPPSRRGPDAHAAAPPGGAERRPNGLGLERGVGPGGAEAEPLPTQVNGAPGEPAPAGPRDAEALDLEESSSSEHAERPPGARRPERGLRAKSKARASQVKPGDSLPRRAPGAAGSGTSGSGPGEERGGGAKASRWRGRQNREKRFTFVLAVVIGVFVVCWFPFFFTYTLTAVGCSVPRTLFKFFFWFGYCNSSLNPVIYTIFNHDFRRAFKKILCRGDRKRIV
Description: The second type of vascular alpha receptor site to be reported is located prejunctionally on sympathetic neurons and called alpha2 sites. The protocol employed for determining this activity is the isolated, superfused guinea pig left atrium described in the cited Hieble publication.

[2] = target: T2, alpha3 (vascular postjunctional alpha2) receptor, dog saphenous vein (Canis lupus familiaris, UniProt A0A8I3Q7S8); settings: for relative potency, alpha3: dog saphenous vein, clonidine versus the compound of this invention
T2 construct: the saphenous vein is located and cleaned of connective tissue; from tissue; host or cells: saphenous vein rings of mongrel dogs
T2 sequence (A0A8I3Q7S8 1-427): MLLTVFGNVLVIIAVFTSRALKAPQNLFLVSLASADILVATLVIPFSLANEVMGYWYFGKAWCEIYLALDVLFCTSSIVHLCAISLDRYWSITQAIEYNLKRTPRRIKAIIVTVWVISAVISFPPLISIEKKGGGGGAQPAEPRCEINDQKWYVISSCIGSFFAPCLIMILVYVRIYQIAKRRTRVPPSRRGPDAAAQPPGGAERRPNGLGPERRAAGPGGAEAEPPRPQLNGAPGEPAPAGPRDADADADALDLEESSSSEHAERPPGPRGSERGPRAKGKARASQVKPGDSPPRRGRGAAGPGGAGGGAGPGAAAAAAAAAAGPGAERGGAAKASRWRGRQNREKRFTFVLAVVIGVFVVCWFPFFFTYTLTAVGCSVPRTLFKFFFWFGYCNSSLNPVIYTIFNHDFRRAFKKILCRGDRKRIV
Description: (§1) Another test system to assay for vascular postjunctional alpha2 stimulation utilizes the dog saphenous vein. This activity may be called alpha3 stimulation. The protocol for this test is as follows:
(§2) Mongrel dogs of either sex are anesthetized with sodium pentobarbital (50 mg/kg, i.p.). After the dog is anesthetized, the saphenous vein is located and cleaned of connective tissue, a 2-4 cm. segment is tied at both ends and removed. The venous segment is placed in a dish of cold Krebs solution and additional cleaning is performed to remove as much non-vascular tissue as possible. Ring segments (3-4 mm.) are then cut from the vessel.
(§3) The vessel is mounted in a superfusion chamber as known to the art for the rabbit ear artery except that the insert holding the venous ring has two parallel 0.5 mm tungsten wires separated by 2 mm. The tissue is slipped over these parallel wires and the insert attached to the main block. A third tungsten wire is then inserted through the ring and attached to a force-displacement transducer.
(§4) An initial tension of 4 gm is placed on the tissue, with tension being adjusted until a stable resting tension of 2 gm. is produced. Concentration-effect curves are determined as described in the publication referred to above for the ear artery segment.

[3] = test system: alpha3 (vascular postjunctional alpha2) receptor, dog saphenous vein; settings: for α2/α3 Selectivity: ratio of ED50 guinea pig atrium to ED50 dog saphenous vein
Description: as §1, §2, §3, §4

normotensive rat = assay: reduction of blood pressure in the normotensive rat model; type: in vivo; settings: for ED30: iv, read-out: EC30 for the reduction of blood pressure (hypotensive effect)
Description: In the normotensive rat model, the I.V. EC30 for the reduction of blood pressure was 9.8 μg/kg.

[4] = potentiation of hexabarbitol induced sleep time (sedation); type: in vivo
[5] = cited literature; cited from earlier work
[6] = target: alpha1 receptor (rabbit ear artery); assay: isolated perfused rabbit ear artery (postjunctional alpha1 agonism); settings: for EC50: isolated perfused rabbit ear artery, read-out: ED50 Alpha1 Rabbit Ear Artery
Description: Since the early work on clonidine, at least two types of vascular alpha receptor sites have been identified. A postjunctional, or postsynaptic, alpha1 receptor was initially reported. […] In the alpha test protocol in the isolated perfused rabbit ear artery described by J. P. Hieble et al., Arch.

Compound: Clc1cccc(Cl)c1N=C1NCCN1 [clonidine, 2-(2,6-dichlorophenylimino)-2-imidazolidine]
- activity relative to the compound of this invention, alpha2 (times as active) ([1]; guinea pig left atrium): 46
- relative potency, alpha3 [2]: about equipotent
- specificity between pre- and post-synaptic receptor subtypes, in words ([3]; in vitro, Table A): very little specificity
- α2/α3 Selectivity [3]: 1
- hypotensive potency relative to the compound of this invention (normotensive rat; clonidine compared with the compound of this invention): only slightly more potent
- ED30 (normotensive rat; normotensive rat, I.V.): 2.3 µg/kg
- marked sedation at a dose lower than the compound of this invention (times lower) ([4]; compared with the compound of this invention): ~30
- ED50 ([4]; iv, read-out: ED50 in the hexabarbitol sleep time assay): 9.6 µg/kg
- sedation, in words (literature) [5]: heavy sedation

Compound: CC(C)(C)c1cc(Cl)c(N=C2NCCN2)c(Cl)c1 [COMPOUND I, 2-(4-tert.-butyl-2,6-dichlorophenylimino)imidazolidine]
- EC50 [6]: 30 nM
- agonist potency relative to clonidine, alpha1 ([6]; rabbit ear artery, compared with clonidine): eight times more potent
- EC50 ([1]; isolated superfused guinea pig left atrium, read-out: ED50 Alpha2 Guinea Pig Atrium): 790 nM
- EC50 [2]: 26 nM
- relative potency, alpha3 [2]: about equipotent
- selectivity for the postsynaptic receptor in vitro (fold) ([3]; post- versus presynaptic receptor, in vitro, Table A): 30
- α2/α3 Selectivity [3]: 30
- ED30 (normotensive rat; Rattus norvegicus): 9.8 µg/kg
- ED50 ([4]; ip, read-out: ED50 for potentiation of hexabarbitol induced sedation): 260 µg/kg
- sedative side effects, in words ([4]; summary statement): devoid of the sedative side effects

Compound: Clc1cccc(Cl)c1NC1=NCCN1 [CLONIDINE HYDROCHLORIDE]
- EC50 [6]: 290 nM
- EC50 [1]: 17 nM
- EC50 ([2]; dog saphenous vein ring, read-out: ED50 Alpha3 Dog Saphenous Vein): 16 nM
- α2/α3 Selectivity [3]: 1

Compound: CCc1ccc(N=C2NCCN2)c(Cl)c1 [2-(2-Chloro-4-ethylphenylimino)-imidazolidine]
- sedation, in words (literature) [5]: very strong sedative or sleep inducer
